# Source: patent US11186580B2, “Crystalline forms of a phosphoinositide 3-kinase (PI3K) inhibitor” (Incyte Corporation, priority 2018, dated 2021)
# Like-named read-outs stand apart in the source and are kept apart here.
# How the values were obtained:
# [1] = target: PI3Kδ (p110δ/p85α) Recombinant Human Protein (Homo sapiens (Human), UniProt O00329); assay: PI3Kδ Scintillation Proximity Assay; assay type: biochemical; settings: 2 μM ATP, 20 μM PIP2, 3.4 nM PI3Kδ
# Text: PI3Kδ Scintillation Proximity Assay
# (§1) [γ-^33P]ATP (10 mCi/mL) and Wheat Germ Agglutinin (WGA) YSi SPA Scintillation Beads was purchased from Perkin-Elmer (Waltham, Mass.). Lipid kinase substrate, D-myo-Phosphatidylinositol 4,5-bisphosphate (PtdIns(4,5)P2)D (+)-sn-1,2-di-O-octanoylglyceryl, 3-O-phospho linked (PIP2), CAS 204858-53-7, was purchased from Echelon Biosciences (Salt Lake City, Utah). PI3Kδ (p110δ/p85α) Recombinant Human Protein was purchased from Eurofins (St Charles, Mo.). ATP, MgCl2, DTT, EDTA, MOPS and CHAPS were purchased from SigmaAldrich (St. Louis, Mo.).
# The kinase reaction was conducted in polystyrene 384-well Greiner Bio-one white plate from Thermo Fisher Scientific in a final volume of 25 μL. Inhibitors were first diluted serially in DMSO and added to the plate wells before the addition of other reaction components. The final concentration of DMSO in the assay was 2%. The PI3Kδ assay was carried out at room temperature in 20 mM MOPS, pH 6.7, 10 mM MgCl2, 5 mM DTT and CHAPS 0.03%. Reactions were initiated by the addition of ATP, the final reaction mixture consisted of 20 μM PIP2, 2 μM ATP, 0.5 μCi [γ-^33P] ATP, 3.4 nM PI3Kδ. Reactions were incubated for 120 min and terminated by the addition of 40 μL SPA beads suspended in quench buffer: 163 mM potassium phosphate pH 7.8, 20% glycerol, 25 mM EDTA. The final concentration of SPA beads is 1.0 mg/mL. After the plate sealing, plates were shaken overnight at room temperature and centrifuged at 1500 rpm for 10 min, the radioactivity of the product was determined by scintillation counting on Topcount (PerkinElmer). IC50 determination was performed by fitting the curve of percent of the solvent control activity versus the log of the inhibitor concentration using the GraphPad Prism 6.0 software.
# [2] = target: PI3Kγ (p110γ) Recombinant Human Protein (Homo sapiens (Human), UniProt P48736); assay: PI3K-γ Scintillation Proximity Assay; assay type: biochemical; settings: 2 μM ATP, 20 μM PIP2, 13 nM PI3Kγ
# Chain of PI3Kγ (p110γ) Recombinant Human Protein (P48736 whole entry): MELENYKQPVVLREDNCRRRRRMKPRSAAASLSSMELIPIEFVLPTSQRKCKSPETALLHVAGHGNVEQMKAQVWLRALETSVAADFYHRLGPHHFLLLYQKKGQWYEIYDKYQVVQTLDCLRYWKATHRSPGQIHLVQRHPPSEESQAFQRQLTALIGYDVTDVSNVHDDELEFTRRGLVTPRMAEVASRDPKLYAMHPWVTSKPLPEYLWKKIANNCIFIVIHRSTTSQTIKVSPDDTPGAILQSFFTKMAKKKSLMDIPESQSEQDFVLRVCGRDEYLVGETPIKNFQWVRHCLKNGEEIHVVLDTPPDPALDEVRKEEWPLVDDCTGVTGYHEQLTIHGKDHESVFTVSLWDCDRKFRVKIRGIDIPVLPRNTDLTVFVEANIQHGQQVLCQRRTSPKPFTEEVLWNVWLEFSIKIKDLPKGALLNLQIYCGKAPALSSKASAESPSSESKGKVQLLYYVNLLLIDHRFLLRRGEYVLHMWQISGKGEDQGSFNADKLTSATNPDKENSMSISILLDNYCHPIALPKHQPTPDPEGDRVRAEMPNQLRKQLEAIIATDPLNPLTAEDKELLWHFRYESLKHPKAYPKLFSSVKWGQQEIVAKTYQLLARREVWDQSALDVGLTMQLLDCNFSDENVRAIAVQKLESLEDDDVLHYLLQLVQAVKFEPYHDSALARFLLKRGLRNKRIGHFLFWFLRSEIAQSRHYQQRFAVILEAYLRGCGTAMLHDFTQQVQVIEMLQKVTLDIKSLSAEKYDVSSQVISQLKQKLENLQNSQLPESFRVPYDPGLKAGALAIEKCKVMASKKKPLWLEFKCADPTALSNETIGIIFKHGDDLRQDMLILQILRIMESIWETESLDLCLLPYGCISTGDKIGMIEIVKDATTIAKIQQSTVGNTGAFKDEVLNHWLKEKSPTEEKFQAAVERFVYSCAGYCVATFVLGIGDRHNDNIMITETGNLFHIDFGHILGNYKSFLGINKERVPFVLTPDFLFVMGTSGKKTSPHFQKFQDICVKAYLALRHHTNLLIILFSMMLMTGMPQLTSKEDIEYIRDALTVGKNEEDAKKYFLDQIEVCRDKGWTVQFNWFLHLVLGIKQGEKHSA
# Text: PI3K-γ Scintillation Proximity Assay
# as §1, with “[γ-^33]ATP” for “[γ-^33P]ATP”, “PI3Kγ (p110γ)” for “PI3Kδ (p110δ/p85α)”, “Life technology (Grand Island, N.Y.).” for “Eurofins (St Charles, Mo.).”
# The kinase reaction was conducted in polystyrene 384-well Greiner Bio-one white plate from Thermo Fisher Scientific in a final volume of 25 μL. Inhibitors were first diluted serially in DMSO and added to the plate wells before the addition of other reaction components. The final concentration of DMSO in the assay was 2%. The PI3Kγ assay was carried out at room temperature in 20 mM MOPS, pH 6.7, 10 mM MgCl2, 5 mM DTT and CHAPS 0.03%. Reactions were initiated by the addition of ATP, the final reaction mixture consisted of 20 μM PIP2, 2 μM ATP, 0.5 μCi [γ-^33P] ATP, 13 nM PI3Kγ. […] After the plate sealing, plates were shaken overnight at room temperature and centrifuged at 1500 rpm for 10 min, the radioactivity of the product was determined by scintillation counting on Topcount (Perkin-Elmer). […]
# [3] = tested on: Phosphorylated Ribosomal Protein S6 (RPS6) in THP-1 cells (PI3Kγ); assay: THP-1 RPS6 ELISA Assay; assay type: cell-based, Human; settings: 10 nM MCP-1 for 15 minutes, Phospho-RPS6 ELISA, read-out: PI3Kγ_THP1_RPS6_ELISA IC50
# Procedure: To measure the Phosphorylated Ribosomal Protein S6 (RPS6) in cell lysates, THP-1 cells (Human Acute Monocytic Leukemia) are purchased from ATCC (Manassas, Va.) and maintained in RPMI with 10% FBS (Gibco/Life Technologies, Carlsbad, Calif.). For the assay, THP-1 cells are serum starved overnight in RPMI, then plated in RPMI (2×10^5 cells/well in 90 μL) into 96-well flat-bottom tissue culture treated plates (Corning, Corning, N.Y.), in the presence or absence of a concentration range of test compounds. Covered plates are incubated for 2 hours at 37° C., 5% CO2 then treated with or without 10 nM MCP-1(MYBioSource, San Diego, Calif.) for 15 minutes at 37° C., 5% CO2. Plates are centrifuged at 1600 RPM and supernatants are removed. Cells are lysed in Lysis Buffer (Cell Signaling, Danvers, Mass.) with Protease Inhibitor (Calbiochem/EMD, Germany), PMSF (Sigma, St Louis Mo.), HALTS (Thermo Fisher, Rockford, Ill.) for 30 min on wet ice. Cell lysates are frozen at −80° C. before testing. The lysates are tested in the Human/Mouse/Rat Phospho-RPS6 ELISA (R&D Systems, Inc. Minn, Minn.). The plate is measured using a microplate reader (SpectraMax M5—Molecular Devices, LLC Sunnyvale, Calif.) set to 450 nm with a wavelength correction of 540. IC50 determination is performed by fitting the curve of inhibitor percent inhibition versus the log of the inhibitor concentration using the GraphPad Prism 5.0 software.
# Chain of PI3Kδ (p110δ/p85α) Recombinant Human Protein (O00329 whole entry): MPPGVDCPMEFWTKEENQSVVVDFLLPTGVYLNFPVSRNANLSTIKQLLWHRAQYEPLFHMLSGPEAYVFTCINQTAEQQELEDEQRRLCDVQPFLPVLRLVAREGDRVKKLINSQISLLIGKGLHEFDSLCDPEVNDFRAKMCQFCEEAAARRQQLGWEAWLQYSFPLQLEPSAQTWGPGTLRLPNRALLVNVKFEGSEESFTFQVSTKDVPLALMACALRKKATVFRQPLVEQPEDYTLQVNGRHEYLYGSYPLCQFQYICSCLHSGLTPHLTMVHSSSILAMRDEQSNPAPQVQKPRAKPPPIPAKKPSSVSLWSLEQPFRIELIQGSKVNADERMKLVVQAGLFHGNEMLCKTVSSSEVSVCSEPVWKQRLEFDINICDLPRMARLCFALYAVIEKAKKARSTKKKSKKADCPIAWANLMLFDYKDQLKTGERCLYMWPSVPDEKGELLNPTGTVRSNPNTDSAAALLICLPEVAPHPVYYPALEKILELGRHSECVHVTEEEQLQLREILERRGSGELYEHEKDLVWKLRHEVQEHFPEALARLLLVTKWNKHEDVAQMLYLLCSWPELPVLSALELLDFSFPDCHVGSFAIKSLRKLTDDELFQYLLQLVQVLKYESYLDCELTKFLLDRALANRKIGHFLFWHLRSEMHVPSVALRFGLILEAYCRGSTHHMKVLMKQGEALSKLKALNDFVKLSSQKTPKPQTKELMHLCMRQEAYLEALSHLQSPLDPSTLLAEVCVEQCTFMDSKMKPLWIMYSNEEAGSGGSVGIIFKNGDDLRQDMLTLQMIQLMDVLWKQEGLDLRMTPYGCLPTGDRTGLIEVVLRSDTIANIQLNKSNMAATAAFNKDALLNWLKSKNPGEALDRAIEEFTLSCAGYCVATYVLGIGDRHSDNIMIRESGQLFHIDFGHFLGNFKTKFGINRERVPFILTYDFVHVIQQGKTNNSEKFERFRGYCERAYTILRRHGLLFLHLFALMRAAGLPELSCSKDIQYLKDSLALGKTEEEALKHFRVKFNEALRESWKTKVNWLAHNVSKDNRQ
# Chain of PI3Kδ (p110δ/p85α) Recombinant Human Protein (P27986 whole entry partner): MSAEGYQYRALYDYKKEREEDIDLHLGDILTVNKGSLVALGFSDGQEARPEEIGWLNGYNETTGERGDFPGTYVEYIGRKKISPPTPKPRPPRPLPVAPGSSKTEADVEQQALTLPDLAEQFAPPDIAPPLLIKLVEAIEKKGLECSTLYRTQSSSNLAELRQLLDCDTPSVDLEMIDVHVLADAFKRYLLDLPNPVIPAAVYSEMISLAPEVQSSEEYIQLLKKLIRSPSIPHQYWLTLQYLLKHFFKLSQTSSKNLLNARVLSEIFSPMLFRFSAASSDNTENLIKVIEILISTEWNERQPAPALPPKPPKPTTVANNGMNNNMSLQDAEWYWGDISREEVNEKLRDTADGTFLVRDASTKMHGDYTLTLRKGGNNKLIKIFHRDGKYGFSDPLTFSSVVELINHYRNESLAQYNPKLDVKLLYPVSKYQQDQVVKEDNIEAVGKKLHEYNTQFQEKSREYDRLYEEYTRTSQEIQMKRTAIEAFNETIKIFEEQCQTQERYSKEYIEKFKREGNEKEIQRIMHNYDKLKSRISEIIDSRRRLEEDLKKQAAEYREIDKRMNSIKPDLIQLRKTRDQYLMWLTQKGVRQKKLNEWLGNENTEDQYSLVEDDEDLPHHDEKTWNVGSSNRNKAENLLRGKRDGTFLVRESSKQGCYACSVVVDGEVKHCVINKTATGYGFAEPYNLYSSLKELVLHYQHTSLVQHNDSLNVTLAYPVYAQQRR
IC50 [1],IC50 [2],"IC50 ([3]; Homo sapiens, THP-1, 0.25 h)",IC50 [3],Structure (SMILES)
< 100 nM,< 100 nM,,,"Cc1ccc(C(O)(C(N)=O)C(F)(F)F)cc1-c1cnc2c(N)nc(C(F)(F)F)cn12 (single isomer, unassigned) [Example 1, 2-(3-(8-Amino-6-(trifluoromethyl)imidazo[1,2-a]pyrazin-3-yl)-4-methylphenyl)-3,3,3-trifluoro-2-hydroxypropanamide]"
< 500 nM,,> 1000 nM,,"Cc1ccc(C(C)(O)C(F)(F)F)cc1-c1cnc2c(N)nc(C(=O)NCC(C)(C)O)cn12 (single isomer, unassigned) [Example 5, 8-Amino-N-(2-hydroxy-2-methylpropyl)-3-(2-methyl-5-(1,1,1-trifluoro-2-hydroxypropan-2-yl)phenyl)imidazo[1,2-a]pyrazine-6-carboxamide]"
< 500 nM,,,< 500 nM,"Cc1ccc(C(C)(O)C(F)(F)F)cc1-c1cnc2c(N)nc(C(=O)NCC(C)(C)O)cn12 (single isomer, unassigned) [Example 6, 8-Amino-N-(2-hydroxy-2-methylpropyl)-3-(2-methyl-5-(1,1,1-trifluoro-2-hydroxypropan-2-yl)phenyl)imidazo[1,2-a]pyrazine-6-carboxamide]"
,,< 500 nM,,"[2H]C([2H])([2H])c1ccc(C(C)(O)C(F)(F)F)cc1-c1cnc2c(N)nc(C(=O)NCC(C)(C)O)cn12 (single isomer, unassigned) [Example 9, 8-Amino-N-(2-hydroxy-2-methylpropyl)-3-(2-(methyl-d3)-5-(1,1,1-trifluoro-2-hydroxypropan-2-yl)phenyl)imidazo[1,2-a]pyrazine-6-carboxamide]"
